Source: patent publication US9399646B2 (Genentech, Inc., priority 2010, dated 2016)

Experiments:
[1] = target: T1, ER-α in MCF-7 cells (Homo sapiens, UniProt P03372); assay: Breast cancer cell ER-α in cell western assay (SP1); type: cell-based; set-up: endogenous in cells; host or cells: MCF-7; details: 4 or 24 hr post compound addition; for Emax: MCF7, SP1 antibody, read-out: ER-α In Cell Western Assay (SP1) Max Response; for DC50: SP1 antibody, read-out: ER-α In Cell Western Assay (SP1) IC50
T1 sequence (P03372 1-595): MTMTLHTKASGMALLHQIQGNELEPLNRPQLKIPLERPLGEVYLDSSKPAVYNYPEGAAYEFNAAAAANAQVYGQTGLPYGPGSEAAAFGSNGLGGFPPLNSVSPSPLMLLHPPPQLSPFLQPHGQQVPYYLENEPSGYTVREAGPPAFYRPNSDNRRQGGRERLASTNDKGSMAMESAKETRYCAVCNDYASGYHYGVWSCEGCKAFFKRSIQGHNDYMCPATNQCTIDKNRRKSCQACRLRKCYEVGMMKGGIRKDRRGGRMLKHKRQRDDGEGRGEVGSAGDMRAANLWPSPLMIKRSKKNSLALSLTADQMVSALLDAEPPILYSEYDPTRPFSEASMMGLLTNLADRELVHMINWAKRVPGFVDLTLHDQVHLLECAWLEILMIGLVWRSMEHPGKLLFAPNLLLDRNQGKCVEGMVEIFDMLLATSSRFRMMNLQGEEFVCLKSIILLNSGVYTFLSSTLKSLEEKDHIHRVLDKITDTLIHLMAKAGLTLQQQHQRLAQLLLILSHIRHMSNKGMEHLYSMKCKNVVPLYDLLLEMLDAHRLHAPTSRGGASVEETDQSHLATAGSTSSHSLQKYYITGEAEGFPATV
Protocol: MCF-7 cells were adjusted to a concentration of 200,000 cells per mL in RPMI containing 10% charcoal-stripped FBS and 20 mM HEPES. 16 microliters of the cell suspension (3200 cells) was added to each well of a poly-D-lysine 384 well plate, and the cells were incubated overnight to allow the cells to adhere. The following day an eleven point, serial semilog dilution of each compound was added to the cells in 16 μL at a final concentration ranging from 0.3-0.000003 μM. At 4 or 24 hr post compound addition, the cells were fixed (10% formalin in PBS) for 20 minutes. Cells were permeablized in PBS 0.1% Triton and blocked with LICOR blocking buffer (50 μl/well, 90°). The wells were then incubated overnight at 4° C. with SP1 rabbit monoclonal Ab (Thermo Scientific) diluted 1:1000 in LICOR blocking buffer/0.1% Tween-20. Wells which were treated with blocking buffer with Tween but no antibody were used as a background control. Wells were washed with 0.1% Tween-20/PBS and then incubated in goat anti-rabbit IRDye™ 800CW (LICOR Inc.; 1:1000) and DRAQ5 DNA dye (1:2000 for 2 mM stock) diluted in LICOR blocking buffer containing 0.1% Tween-20 and 0.01% SDS for 60 minutes. Cells were washed (50 μl/well, 5′ each) in 0.1% Tween-20/PBS. Plates were scanned on a LICOR Odyssey infrared imaging system. Integrated intensities in the 800 nm channel and 700 nm channel were measured to determine levels of ER and DNA respectively. Percent ER levels were determined as follows: (Integrated intensity 800 nm sample/integrated intensity 700 nm sample)/(Integrated intensity 800 nm untreated cells/integrated intensity 700 nm untreated cells)×100=% ER levels.

[2] = test system: MCF-7 cells; assay: Breast cancer cell viability assay (CellTiter-Glo, 5 days); type: cell-based; details: 5 days' compound exposure; for IC50: Homo sapiens, MCF7, 120 h
Protocol: MCF-7 cells were adjusted to a concentration of 20,000 cells per mL in RPMI containing 10% FBS and 20 mM HEPES. 16 microliters of the cell suspension (320 cells) was added to each well of a 384 well plate, and the cells were incubated overnight to allow the cells to adhere. The following day an eleven point, serial semilog dilution of each compound was added to the cells in 16 μL at a final concentration ranging from 0.3-0.000003 μM. After 5 days' compound exposure, 16 μL of CellTiter-GLo (Promega, Madison Wis.) was added to the cells the relative luminescence units (RLUs) of each well was determined CellTiter-Glo added to 32 μL of medium without cells was used to obtain a background value. The Percent viability of each sample was determined as follows: (RLU sample-RLU background/RLU untreated cells-RLU background)×100=% viability.

Structure (SMILES)	Emax [1] [%]	DC50 [1] [nM]	MCF7 Viability Assay Max Response [2]	IC50 [2] [nM]
CC/C(=C(/c1ccc(/C=C/C(=O)O)cc1)c1cc(F)c2[nH]ccc2c1)c1ccccc1 [Compound 92, (E)-3-(4-((E)-1-(7-Fluoro-1H-indol-5-yl)-2-phenylbut-1-en-1-yl)phenyl)acrylic acid]	≥ 40	≤ 100	++ (++ = a single % value ≧ 40%)	≤ 100
CC/C(=C(/c1ccc(/C=C/C(=O)O)cc1)c1cccc2[nH]nnc12)c1ccccc1 [Compound 88, (E)-3-(4-((E)-1-(1H-Benzo[d][1,2,3]triazol-4-yl)-2-phenylbut-1-en-1-yl)phenyl)acrylic acid]	≥ 40	> 100	++ (++ = a single % value ≧ 40%)	> 100
CC/C(=C(/c1ccc(/C=C/C(=O)O)cc1)c1ccc2[nH]ncc2c1)c1ccccc1Oc1ccccc1 [Compound 147, (E)-3-(4-((E)-1-(1H-Indazol-5-yl)-2-(2-phenoxyphenyl)but-1-en-1-yl)phenyl)acrylic acid]	≥ 40	≤ 100	++ (++ = a single % value ≧ 40%)	≤ 100
CC/C(=C(/c1ccc(/C=C/C(=O)O)cc1)c1ccc2[nH]ncc2c1)c1cccc(Oc2ccncn2)c1 [Compound 364, (E)-3-(4-((E)-1-(1H-Indazol-5-yl)-2-(3-(pyrimidin-4-yloxy)phenyl)but-1-en-1-yl)phenyl)acrylic acid]	≥ 40	≤ 100	++ (++ = a single % value ≧ 40%)	≤ 100
CC/C(=C(/c1ccc(/C=C/C(=O)O)cc1)c1ccc2nncn2c1)c1ccccc1 [Compound 127, (E)-3-(4-((E)-1-([1,2,4]Triazolo[4,3-a]pyridin-6-yl)-2-phenylbut-1-en-1-yl)phenyl)acrylic acid]	< 40	> 100	+ (+ = a single % value < 40%)	> 100
CC/C(=C(/c1ccc(/C=C/C(=O)O)cc1)c1ccc2[nH]ncc2n1)c1ccccc1 [Compound 120, (E)-3-(4-((E)-2-Phenyl-1-(1H-pyrazolo[4,3-b]pyridin-5-yl)but-1-en-1-yl)phenyl)acrylic acid]	≥ 40	≤ 100	++ (++ = a single % value ≧ 40%)	≤ 100
CC/C(=C(/c1ccc(OCC(=O)O)cc1)c1ccc2[nH]ncc2c1)c1ccccc1 [Compound 190, (E)-2-(4-(1-(1H-Indazol-5-yl)-2-phenylbut-1-en-1-yl)phenoxy)acetic acid]	≥ 40	> 100	++ (++ = a single % value ≧ 40%)	> 100
CC/C(=C(/c1ccc(/C=C/C(=O)NS(C)(=O)=O)cc1)c1ccc2scnc2c1)c1ccc(F)cc1Cl [Compound 416, (E)-3-(4-((E)-1-(Benzo[d]thiazol-5-yl)-2-(2-chloro-4-fluorophenyl)but-1-en-1-yl)phenyl)-N-(methylsulfonyl)acrylamide]	≥ 40	≤ 100	++ (++ = a single % value ≧ 40%)	≤ 100
CC/C(=C(/c1ccc(/C=C/C(=O)O)cc1)c1ccc2[nH]ncc2c1)c1cnccc1C(F)(F)F [Compound 207, (E)-3-(4-((E)-1-(1H-Indazol-5-yl)-2-(4-(trifluoromethyl)pyridin-3-yl)but-1-en-1-yl)phenyl)acrylic acid]	≥ 40	≤ 100	++ (++ = a single % value ≧ 40%)	≤ 100
CC/C(=C(/c1ccc(/C=C/C(=O)O)cc1)c1ccc2[nH]ncc2c1)c1cccc(CC(=O)O)c1 [Compound 327, (E)-3-(4-((E)-2-(3-(Carboxymethyl)phenyl)-1-(1H-indazol-5-yl)but-1-en-1-yl)phenyl)acrylic acid]	< 40	> 100	+ (+ = a single % value < 40%)	> 100
CC/C(=C(/c1ccc(/C=C/C(=O)O)cc1)c1ccc2[nH]ncc2c1)c1ccc(N(C)c2ccccc2)cc1 [Compound 396, (E)-3-(4-((E)-1-(1H-Indazol-5-yl)-2-(4-(methyl(phenyl)amino)phenyl)but-1-en-1-yl)phenyl)acrylic acid & (E)-3-(4-((Z)-1-(1H-indazol-5-yl)-2-(4-(methyl(phenyl)amino)phenyl)but-1-en-1-yl)phenyl)acrylic acid (1:1 Mixture)]	≥ 40	> 100	++ (++ = a single % value ≧ 40%)	> 100
CC/C(=C(/c1ccc(/C=C/C(=O)O)cc1)c1ccc2[nH]ncc2c1)c1ccc(-c2cscn2)cc1 [Compound 388, (E)-3-(4-((E)-1-(1H-Indazol-5-yl)-2-(4-(thiazol-4-yl)phenyl)but-1-en-1-yl)phenyl)acrylic acid]	≥ 40	≤ 100	++ (++ = a single % value ≧ 40%)	> 100
CC/C(=C(/c1ccc(/C=C/C(=O)O)cc1)c1ccc2[nH]ncc2c1)c1ccc(CC(=O)O)cc1 [Compound 328, (E)-3-(4-((E)-2-(4-(Carboxymethyl)phenyl)-1-(1H-indazol-5-yl)but-1-en-1-yl)phenyl)acrylic acid]	< 40	> 100	+ (+ = a single % value < 40%)	> 100
CC/C(=C(/c1ccc(/C=C/C(=O)O)cc1)c1ccc2[nH]ncc2c1F)c1ccc(Oc2ccccn2)cc1 [Compound 296, (E)-3-(4-((E)-1-(4-Fluoro-1H-indazol-5-yl)-2-(4-(pyridin-2-yloxy)phenyl)but-1-en-1-yl)phenyl)acrylic acid]	≥ 40	≤ 100	++ (++ = a single % value ≧ 40%)	≤ 100
CC/C(=C(/c1ccc(/C=C/C(=O)O)cc1)c1ccc2[nH]ncc2c1)c1cccc(Oc2cncnc2)c1 [Compound 369, (E)-3-(4-((E)-1-(1H-Indazol-5-yl)-2-(3-(pyrimidin-5-yloxy)phenyl)but-1-en-1-yl)phenyl)acrylic acid]	≥ 40	≤ 100	++ (++ = a single % value ≧ 40%)	> 100
CC/C(=C(/c1ccc(/C=C/C(=O)O)cc1)c1ccc2[nH]ncc2c1)c1cnc(C)s1 [Compound 229, (E)-3-(4-((E)-1-(1H-Indazol-5-yl)-2-(2-methylthiazol-5-yl)but-1-en-1-yl)phenyl)acrylic acid]	≥ 40	> 100	++ (++ = a single % value ≧ 40%)	> 100
CC/C(=C(/c1ccc(/C=C/C(=O)O)cc1)c1ccc2c(cnn2C(F)F)c1)c1ccc(F)cc1Cl [Compound 401, (E)-3-(4-((E)-2-(2-Chloro-4-fluorophenyl)-1-(1-(difluoromethyl)-1H-indazol-5-yl)but-1-en-1-yl)phenyl)acrylic acid]	–	–	–	> 100
